Measured values as given in PubChem BioAssay (NCI).
“And” between values parts separate entries of the source, which are not always exact repeats. Equal values may be shown once.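 A five-concentration, 48-hour dose response in 96-well plates underlies each endpoint, interpolated linearly between surrounding concentrations. Here, GI50 denotes the concentration required for 50% inhibition of growth. TGI: total growth inhibition.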

Experiments:
Experiment in all cases: NCI-60 cell line screen, 48 h
[1] = test system: OVCAR-4 ovarian
[2] = test system: CCRF-CEM leukemia
[3] = test system: SF-295 CNS
[4] = test system: SN12C renal
[5] = test system: OVCAR-3 ovarian
[6] = test system: HOP-62 NSCLC
[7] = test system: SK-MEL-5 melanoma
[8] = test system: OVCAR-8 ovarian
[9] = test system: BT-549 breast
[10] = test system: HCC-2998 colon
[11] = test system: HT29 colon
[12] = test system: COLO 205 colon
[13] = test system: NCI-H522 lung
[14] = test system: 786-0 renal
[15] = test system: M14 melanoma
[16] = test system: SK-OV-3 ovarian
[17] = test system: IGROV1 ovarian
[18] = test system: DU-145 prostate
[19] = test system: K-562 leukemia
[20] = test system: KM12 colon
[21] = test system: SF-268 CNS
[22] = test system: HCT-15 colon
[23] = test system: MCF7 breast
[24] = test system: NCI-H226 lung
[25] = test system: MALME-3M melanoma
[26] = test system: SR leukemia
[27] = test system: RPMI-8226 leukemia
[28] = test system: A498 renal
[29] = test system: HOP-92 NSCLC
[30] = test system: SW-620 colon
[31] = test system: HCT-116 colon
[32] = test system: LOX IMVI melanoma
[33] = test system: SNB-19 CNS
[34] = test system: EKVX NSCLC
[35] = test system: MOLT-4 leukemia
[36] = test system: TK-10 renal
[37] = test system: HL-60(TB) leukemia
[38] = test system: UACC-257 melanoma
[39] = test system: U251 CNS
[40] = test system: MDA-MB-435
[41] = test system: SF-539 CNS
[42] = test system: ACHN renal
[43] = test system: MDA-MB-231 breast
[44] = test system: NCI-H23 lung
[45] = test system: OVCAR-5 ovarian
[46] = test system: UO-31 renal
[47] = test system: NCI/ADR-RES ovarian
[48] = test system: A549 NSCLC
[49] = test system: UACC-62 melanoma
[50] = test system: CAKI-1 renal
[51] = test system: PC-3 prostate
[52] = test system: T-47D breast
[53] = test system: SK-MEL-2 melanoma
[54] = test system: RXF 393 renal
[55] = test system: HS 578T breast
[56] = test system: NCI-H460 lung

CC(=O)Nc1ccc(/C=C/C(=O)N2CC(CCl)c3c2cc(N)c2ccccc32)cc1 (configuration not stated)
TGI [1]: 9.18 µM | TGI [2]: 50 µM | TGI [3]: 38.5 µM | TGI [4]: 0.0072 µM | TGI [5]: 5.56 µM | TGI [6]: 0.0145 µM | TGI [7]: 0.00589 µM | TGI [8]: 0.0741 µM | TGI [9]: 0.0326 µM and 0.0218 µM | TGI [10]: 0.0427 µM and 0.129 µM | TGI [11]: 0.0384 µM | TGI [12]: 0.0362 µM | TGI [13]: 0.00671 µM | TGI [14]: 0.0124 µM | TGI [15]: 0.00795 µM | TGI [16]: 0.573 µM and 0.3 µM | TGI [17]: 0.614 µM | TGI [18]: 0.135 µM | TGI [19]: 50 µM | TGI [20]: 50 µM and > 100 µM | TGI [21]: 0.0208 µM | TGI [22]: 50 µM | TGI [23]: 50 µM and > 100 µM | TGI [24]: 0.0292 µM | TGI [25]: 0.00756 µM | TGI [26]: 50 µM | TGI [27]: 50 µM | TGI [28]: 0.00609 µM | TGI [29]: 0.00989 µM | TGI [30]: 0.509 µM | TGI [31]: 0.14 µM | TGI [32]: 0.097 µM | TGI [33]: 0.0269 µM and 0.111 µM | TGI [34]: 0.0576 µM | TGI [35]: 50 µM | TGI [36]: 18.7 µM

Cc1cc(S(=O)(=O)[O-])ccc1-n1nc(C)[c-](N=Nc2cc(S(=O)(=O)[O-])ccc2C(=O)[O-])c1=O.[Cr+3].[Na+].[OH-] (configuration not stated)
GI50 [2]: 0.468 µM | GI50 [37]: 28.3 µM

O=C(NNC(=S)NC1CCCCC1)c1csc(NC(=S)NC2CCCCC2)n1
TGI [2]: > 100 µM | TGI [38]: 11.8 µM | TGI [3]: 19.7 µM | TGI [39]: 20.2 µM | TGI [4]: 25.9 µM | TGI [5]: 16.9 µM | TGI [6]: 35.2 µM | TGI [7]: 8.79 µM | TGI [8]: 15 µM | TGI [40]: 26.6 µM | TGI [37]: > 100 µM | TGI [9]: 21.1 µM | TGI [41]: 15.6 µM | TGI [42]: 15.3 µM | TGI [10]: 14.5 µM | TGI [11]: > 100 µM | TGI [12]: 14.1 µM | TGI [13]: 28.2 µM | TGI [14]: 19.9 µM | TGI [15]: 16.1 µM | TGI [16]: 28.6 µM | TGI [43]: 45.1 µM | TGI [17]: 26.6 µM | TGI [18]: > 100 µM | TGI [44]: 45.2 µM | TGI [45]: 40.1 µM | TGI [46]: 11.2 µM | TGI [47]: 13.3 µM | TGI [20]: 87.6 µM | TGI [21]: 26.3 µM | TGI [48]: 23.3 µM | TGI [49]: 22.6 µM | TGI [22]: 14.5 µM | TGI [23]: > 100 µM | TGI [24]: > 100 µM | TGI [25]: 26 µM | TGI [50]: 24.2 µM | TGI [26]: > 100 µM | TGI [51]: 24.9 µM | TGI [27]: 46.7 µM | TGI [52]: 74.6 µM | TGI [28]: 36.3 µM | TGI [53]: 33.7 µM | TGI [30]: 19.5 µM | TGI [31]: 16.5 µM | TGI [32]: 18.9 µM | TGI [33]: 44.8 µM | TGI [34]: > 100 µM | TGI [35]: 25.5 µM | TGI [36]: > 100 µM

CN(C)CCCNC(=O)c1cc(NC(=O)c2cc(NC(=O)CCNS(=O)(=O)c3ccc4c(c3)C(=O)c3ccccc3C4=O)cn2C)cn1C
GI50 [54]: > 100 µM | TGI [54]: > 100 µM | GI50 [2]: > 100 µM | TGI [2]: > 100 µM | GI50 [38]: > 100 µM | TGI [38]: > 100 µM | GI50 [55]: > 100 µM | TGI [55]: > 100 µM | GI50 [3]: > 100 µM | TGI [3]: > 100 µM | GI50 [39]: > 100 µM | TGI [39]: > 100 µM | GI50 [4]: > 100 µM | TGI [4]: > 100 µM | GI50 [5]: > 100 µM | TGI [5]: > 100 µM | GI50 [7]: > 100 µM | TGI [7]: > 100 µM | GI50 [8]: > 100 µM | TGI [8]: > 100 µM | GI50 [40]: > 100 µM | TGI [40]: > 100 µM | GI50 [37]: > 100 µM | TGI [37]: > 100 µM | GI50 [56]: > 100 µM | TGI [56]: > 100 µM | GI50 [9]: > 100 µM | TGI [9]: > 100 µM | GI50 [41]: > 100 µM | TGI [41]: > 100 µM | GI50 [10]: > 100 µM | TGI [10]: > 100 µM | GI50 [11]: > 100 µM | TGI [11]: > 100 µM | GI50 [12]: > 100 µM | TGI [12]: > 100 µM | GI50 [13]: > 100 µM | TGI [13]: > 100 µM | GI50 [14]: > 100 µM | TGI [14]: > 100 µM | GI50 [16]: > 100 µM | TGI [16]: > 100 µM | GI50 [43]: > 100 µM | TGI [43]: > 100 µM | GI50 [17]: > 100 µM | TGI [17]: > 100 µM | GI50 [44]: > 100 µM | TGI [44]: > 100 µM | GI50 [45]: > 100 µM | TGI [45]: > 100 µM | GI50 [19]: > 100 µM | TGI [19]: > 100 µM | GI50 [46]: > 100 µM | TGI [46]: > 100 µM | GI50 [47]: > 100 µM | TGI [47]: > 100 µM | GI50 [20]: > 100 µM | TGI [20]: > 100 µM | GI50 [21]: > 100 µM | TGI [21]: > 100 µM | GI50 [48]: > 100 µM | TGI [48]: > 100 µM | GI50 [49]: > 100 µM | TGI [49]: > 100 µM | GI50 [23]: > 100 µM | TGI [23]: > 100 µM | GI50 [24]: > 100 µM | TGI [24]: > 100 µM | GI50 [50]: > 100 µM | TGI [50]: > 100 µM | GI50 [26]: 85.9 µM | TGI [26]: > 100 µM | GI50 [51]: > 100 µM | TGI [51]: > 100 µM | GI50 [27]: > 100 µM | TGI [27]: > 100 µM | GI50 [52]: > 100 µM | TGI [52]: > 100 µM | GI50 [28]: > 100 µM | TGI [28]: > 100 µM | GI50 [29]: > 100 µM | TGI [29]: > 100 µM | GI50 [53]: > 100 µM | TGI [53]: > 100 µM | GI50 [30]: > 100 µM | TGI [30]: > 100 µM | GI50 [33]: > 100 µM | TGI [33]: > 100 µM | GI50 [34]: > 100 µM | TGI [34]: > 100 µM | GI50 [35]: > 100 µM | TGI [35]: > 100 µM | GI50 [36]: 74.2 µM | TGI [36]: > 100 µM
